These are literature values, as cited in patent US8034921B2, “IRNA agents targeting CCR5 expressing cells and uses thereof” (Alnylam Pharmaceuticals, Inc., priority 2006, dated 2011).

pIC50: −log10 of the molar value. Where two headings read alike, the source gives them in different places.

Series [1] addresses T1, CCR5 (Homo sapiens, UniProt P51681). The note with it: read-out: IC50, inhibition of [125I]MIP-1α binding.
Series [2] concerns the target T1, CCR5. Details: expressed in transfected cells; host or cells: CHO cells. Particulars: CCR5-expressing CHO cells; read-out: IC50, inhibition of [125I]RANTES binding.
For a further series, the target named is HIV-1 gp120/CCR5 (Homo sapiens, UniProt P51681). Particulars: read-out: IC50, HIV-1 gp120/CCR5 binding.
Chain of HIV-1 gp120/CCR5 (P51681 whole entry): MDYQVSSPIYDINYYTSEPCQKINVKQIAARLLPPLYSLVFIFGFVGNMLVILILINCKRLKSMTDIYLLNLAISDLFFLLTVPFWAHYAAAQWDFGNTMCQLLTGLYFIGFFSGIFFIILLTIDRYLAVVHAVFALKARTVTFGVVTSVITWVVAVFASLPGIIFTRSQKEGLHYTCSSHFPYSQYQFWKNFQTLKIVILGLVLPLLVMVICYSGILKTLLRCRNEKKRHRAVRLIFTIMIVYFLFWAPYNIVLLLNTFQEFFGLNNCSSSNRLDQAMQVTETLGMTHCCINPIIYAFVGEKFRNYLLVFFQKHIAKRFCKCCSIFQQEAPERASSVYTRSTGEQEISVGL
For series [3] the following is noted: rodents.
For series [4] the following is noted: healthy volunteers.
For the next series, the target named is cyano CCR5 (Macaca fascicularis, UniProt P61814). Particulars: cyano CCR5, transfected CHO cell membranes; read-out: IC50, CCR5 binding against [125I]MI-1α.
The conditions of series [5]: in vivo.
The target in series [6] is T1, CCR5. On the set-up: expressed in transfected cells; host or cells: CHO cells. Particulars: CHO cells expressing recombinant human CCR5.
Series [7] deals with T1, CCR5. On the set-up: expressed in transfected cells; host or cells: CHO cells. Particulars: membranes from CHO cells stably expressing recombinant human CCR5; read-out: IC50, binding of [125I]RANTES.

T1 sequence (P51681 whole entry): as the sequence (P51681 whole entry) above

On to `C=CCN(C(=O)OCc1ccc([N+](=O)[O-])cc1)C1CCN(CCC(C)(CN(C)S(=O)(=O)c2ccccc2)c2ccccc2)CC1` (stereo not shown) [Compound 21], for which the pIC50 at CCR5 [1] is 8.36.

Consider `CS(=O)(=O)N1CCC(C(=O)N(CCCN2CCC(Cc3ccc(S(=O)(=O)N4CCOCC4)cc3)CC2)c2ccc(Cl)c(Cl)c2)CC1` [Compound 9d], for which the pIC50 on CCR5 [2] was 8.89. With `O=C(Nc1ccc(Cl)cc1)N(CCCN1CCC(Cc2ccc(S(=O)(=O)N3CCOCC3)cc2)CC1)c1ccccc1` [Compound 15], at CCR5 [2], the pIC50 is 9.00. As to `CCCCN1C(=O)C(CC2CCCCC2)NC(=O)C12CCN(Cc1ccc3c(c1)OCCO3)CC2` (stereo not shown) [Compound 13], the pIC50 at HIV-1 gp120/CCR5 was 9.00. Further, in the series with R5 HIV-1 isolates, the “activity against a wide range of R5 HIV-1 isolates” value is “potent activity”. Besides, the oral bioavailability result in series [3] is “favorable”. Also, in series [4], the QTc prolongation entry is reported as “some incidents of QTc prolongation” and the serious adverse events result was “No serious adverse events”. The tolerated dose in series [4] (multiple dosing twice a day) is listed as 800 mg. For the same molecule, in series [4] (single dose), the tolerated dose is 1200 mg. Turning to `CS(=O)(=O)N1CCC(C(=O)N(CCCN2CCC(Cc3ccc(S(N)(=O)=O)cc3)CC2)c2ccc(Cl)c(Cl)c2)CC1` [Compound 9a], the pIC50 on CCR5 [2] was 8.47.

As for `CNS(=O)(=O)c1ccc(CC2CCN(CCCN(C(=O)C3CCN(S(C)(=O)=O)CC3)c3ccc(Cl)c(Cl)c3)CC2)cc1` [Compound 9b], the pIC50 at CCR5 [2] is 8.82. `Cc1cccc(C)c1C(=O)N1CCC(C)(N2CCC(N(Cc3ccccc3)c3ccccc3)CC2)CC1` [Compound 19]: the pIC50 on cyano CCR5 is 9.15. Consider `COC[C@@H](c1ccc(C(F)(F)F)cc1)N1CCN(C2(C)CCN(C(=O)c3c(C)ncnc3C)CC2)C[C@@H]1C` [Compound 1], for which the viral load result in the series on HIV-infected patients (48 HIV-infected patients, phase I) was “dose-dependent reduction in viral load”. In addition, the cardiovascular side effects entry in the series on HIV-infected patients (human, in vivo) was “no cardiovascular side effects”. The bioavailability – broadly, dose-corrected exposure relative to a reference, in per cent – in series [5] was 100%. Regarding `CCN(C(=O)Cc1ccc(S(C)(=O)=O)cc1)C1CCN(C(C)CC(NC(=O)OC2CCOCC2)c2ccccc2)CC1` (stereo not shown) [Compound 3], the “IC50 for inhibition of CCL3 and CCL5 binding” value at CCR5 [6] is “sub-nanomolar range”. For the molecule `CCN(C(=O)Nc1ccc(S(C)(=O)=O)cc1)C1CCN(CCC(c2ccccc2)c2ccccc2)CC1` [Compound 7], the pIC50 at CCR5 [7] was 7.31. For the molecule `CCCCOCCOc1ccc(-c2ccc3c(c2)C=C(C(=O)Nc2ccc(CN(C)C4CCOCC4)cc2)CCS3(=O)=O)cc1` [Compound 17a], the pIC50 at CCR5 [2] was 7.57. On to `CN(C)S(=O)(=O)c1ccc(CC2CCN(CCCN(C(=O)C3CCN(S(C)(=O)=O)CC3)c3ccc(Cl)c(Cl)c3)CC2)cc1` [Compound 9c], for which, at CCR5 [2], the pIC50 is 8.92. On to `CCN(C(=O)Cc1ccc(S(=O)(=O)N(C)C)cc1)C1CCN(CCC(c2ccccc2)c2ccccc2)CC1` [Compound 5b], for which, on CCR5 [7], the pIC50 is over 8.00. In the case of `CCCCOCCOc1ccc(-c2ccc3c(c2)C=C(C(=O)Nc2ccc(CN(C)C4CCOCC4)cc2)CCN3CC(C)C)cc1` [Compound 17b], at CCR5 [2], the pIC50 is 8.44.
